Patent US20040106135A1, “Assay for PPAR ligand dependent gene modulation” (priority 2002, published 2004)
Read-outs that look alike come from different tables or passages of the source.

What was measured:
Format in all cases: cell-based, human
Caki-1 cells = test: Transcriptional profiling by DNA microarray, Caki-1 cells
Protocol: Expression profiling: Expression profiling of RNA samples was performed essentially as described (Lockhart et al., (1996) Nat. Biotechnol. 14:1675-80) using the Affymetrix human U95Av2 array. Briefly, RNA was isolated from 100 mm cell culture dishes, DNased, and 15 μg used as a template for double stranded cDNA synthesis according to standard protocols (Invitrogen). Reverse transcription was primed using a T7-modified oligo-dT primer (5-[…]-d(T)24-3′) (SEQ ID NO: 1). In vitro transcription was then performed on each double stranded cDNA synthesis, according to the manufacturer's (Enzo Diagnostics) instructions. The resultant cRNA products were purified using RNeasy columns (Qiagen), pooled, and quantitated spectrophotometrically. For each sample, 20 μg of in vitro transcribed cRNA was fragmented by heating the sample to 94° C. in the presence of 40 mM Tris-acetate, pH 8.1, 100 mM potassium acetate, and 30 mM magnesium acetate. […]
Data Analysis: Affymetrix CEL files from GeneChip 4.0 (Affymetrix) were imported into Resolver 2.0 under an empirically derived Affymetrix error model (Rosetta Inpharmatics). […] Accordingly, the statistical significance (P-value) of a given expression data point takes into account the underlying error associated with the Affymetrix transcript abundance measurements as determined by this platform-specific error model. […]

[1] = test system: PDK-4 mRNA in HK-2 cells (endogenous PPARα); test: PDK-4 mRNA induction in HK-2 cells (real-time RT-PCR); details: for EC50: 24 hours
Protocol: (§1) Values were normalized to 18S rRNA levels.
EC50 values were determined for PDK-4 mRNA induction by quantitative PCR under conditions used to generate the data shown in FIG. 2. EC50 values in the transactivation assays were determined by transfection of an expression plasmid encoding a GAL4-hPPARα chimera into cells co-expressing a luciferase reporter gene under the transcriptional control of GAL4 upstream activating elements.
(§2) Cell culture: The following cell lines were obtained from American Type Culture Collection (ATCC) and cultured in the recommended medium for each cell type: HepG2, HK-2, Caki-1, LNCaP (CloneFGC), SW872, and ACHN. PPARα compounds were prepared to a 500× stock in DMSO; corresponding control cells received an equal volume of vehicle (0.2% v/v).
Real-time PCR: Fluorescence-based real-time PCR was performed essentially as described (Abbaszade et al., (1999) J. Biol. Chem. 274:23443-23450). Primers and probes designed from the hamster pyruvate dehydrogenase kinase 4 (PDK4) sequence (Genbank Accession No. AF321218), human pyruvate dehydrogenase kinase 4 (PDK-4) sequence (Genbank Accession No. NM_002612) and human adipose differentiation-related protein (ADFP) sequence (Genbank Accession No. NM_001122) were synthesized and purified by Biosearch Technologies. Probes for ADFP and PDK-4 were modified at the 5′ end with the reporter dye 6-FAM, and at the 3′ end with the quencher dye Black Hole Quencher 1 (Biosearch Technologies). Probes detecting rat 18S rRNA were modified at the 5′ end with VIC and at the 3′ end with TAMRA (Biosearch Technologies). For detection of hamster PDK4, primers 5′-[…] (SEQ ID NO:2), 5′[…] (SEQ ID NO:3), and probe 5′-[…] (SEQ ID NO:4) were used. For detection of human PDK4, primers 5′-[…] (SEQ ID NO:5), 5′-[…] (SEQ ID NO:6), and probe 5′-[…] (SEQ ID NO:7) were used. For detection of human ADFP, primers 5′-[…] (SEQ ID NO:8), 5′-[…] (SEQ ID NO:9), and probe 5′-[…] (SEQ ID NO: 10) were used. For detection of 18s rRNA, primers 5′-[…] (SEQ ID NO:11), 5′-[…] (SEQ ID NO:12), and probe 5′-[…] (SEQ ID NO:13) were used. Template cDNA was generated using the Advantage RT-PCR kit according to the manufacturer's (Clontech) instructions using random hexamers and 1 μg of DNaseI-treated total RNA. Taqman-based real-time PCR expression profiling was performed using 25 ng of each cDNA according to the manufacturer's (PE Biosystems) instructions with fluorescence being monitored in real-time with an ABI Prism 7700 (PE Biosystems). Relative expression levels were determined essentially as described (Gibson et al., (1996) Genome Res. 6:995-1001) using standard curves for each transcript. Relative abundance was then determined from these standard curves, subtracting mRNA levels obtained from negative control reactions performed in the absence of reverse transcriptase, and normalized to 18S rRNA levels. All expression measurements were performed in duplicate in two independent assays, generating a total of four measurements per cDNA.

[2] = test system: ADRP mRNA in HK-2 cells (endogenous PPARα); test: ADRP mRNA induction in HK-2 cells (real-time RT-PCR); details: 100 nM GW9578
Protocol: as §1, §2
Real-time PCR: Fluorescence-based real-time PCR was performed essentially as described (Abbaszade et al., (1999) J. Biol. Chem. 274:23443-23450). […] Taqman-based real-time PCR expression profiling was performed using 25 ng of each cDNA according to the manufacturer's (PE Biosystems) instructions with fluorescence being monitored in real-time with an ABI Prism 7700 (PE Biosystems). Relative expression levels were determined essentially as described (Gibson et al., (1996) Genome Res. 6:995-1001) using standard curves for each transcript. Relative abundance was then determined from these standard curves, subtracting mRNA levels obtained from negative control reactions performed in the absence of reverse transcriptase, and normalized to 18S rRNA levels. […]

Compound: CCCCCCCN(CCc1ccc(SC(C)(C)C(=O)O)cc1)C(=O)Nc1ccc(F)cc1F [GW9578, ureido-thioisobutyric acid]
- Changes in gene expression in Caki-1 cells (Caki-1 cells): only minor changes
- EC50 ([1]; RT-PCR, read-out: EC50 for activation of PDK-4 in HK-2 cells): ~0.01 µM
- Time to near maximal increase of PDK-4 mRNA ([1]; HK-2 cells, 100 nM GW9578): ≤ 2 h
- EC50 ([1]; PDK-4 mRNA induction by quantitative PCR, normalized to 18S rRNA, read-out: EC50 (μM) in HK-2 (PDK-4)): 0.01 µM
- Time to near maximal increase of ADRP mRNA [2]: ≤ 2 h
